In PubChem BioAssay AID248 (DTP/NCI, 2004):
Values joined by “and” are separate entries in the source; they are usually repeats but may differ in a detail not shown here. Identical values can stand only once. Inconclusive results and toxic doses are left out. No stated cut-off is given here; in the data, active means T/C of 150% or more; inactive means T/C below 125%.

Tested on: L1210 leukemia ip in BDF1 mice, survival T/C
Assay: NCI In Vivo Anticancer Drug Screen. Data for tumor model L1210 Leukemia (intraperitoneal) in B6D2F1 (BDF1) mice
Conditions: endpoint: mean survival time, higher = longer survival
Method in brief: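 Ratio derived from survival: compound-dosed mice over vehicle-dosed mice, all bearing a transplantable tumor.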

[1] = dose: 12.5 mg/kg/injection, schedule: Q01DX009 (ip), vehicle: Klucel (hydroxypropylcellulose) (HPC)
[2] = dose: 25.0 mg/kg/injection, schedule: Q01DX009 (ip), vehicle: Klucel (hydroxypropylcellulose) (HPC)
[3] = dose: 50.0 mg/kg/injection, schedule: Q01DX009 (ip), vehicle: Klucel (hydroxypropylcellulose) (HPC)
[4] = dose: 100.0 mg/kg/injection, schedule: Q04DX003 (ip), vehicle: saline
[5] = dose: 200.0 mg/kg/injection, schedule: Q04DX003 (ip), vehicle: saline
[6] = dose: 100.0 mg/kg/injection, schedule: Q01DX009 (ip), vehicle: Klucel (hydroxypropylcellulose) (HPC)
[7] = dose: 100.0 mg/kg/injection, schedule: Q04DX003 (ip), vehicle: Klucel (hydroxypropylcellulose) (HPC)
[8] = dose: 200.0 mg/kg/injection, schedule: Q01DX009 (ip), vehicle: Klucel (hydroxypropylcellulose) (HPC)
[9] = dose: 200.0 mg/kg/injection, schedule: Q04DX003 (ip), vehicle: Klucel (hydroxypropylcellulose) (HPC)
[10] = dose: 400.0 mg/kg/injection, schedule: Q01DX009 (ip), vehicle: Klucel (hydroxypropylcellulose) (HPC)
[11] = dose: 400.0 mg/kg/injection, schedule: Q04DX003 (ip), vehicle: Klucel (hydroxypropylcellulose) (HPC)
[12] = dose: 100.0 mg/kg/injection, schedule: Q01DX009 (ip), vehicle: saline with Tween-80
[13] = dose: 200.0 mg/kg/injection, schedule: Q01DX009 (ip), vehicle: saline with Tween-80
[14] = dose: 400.0 mg/kg/injection, schedule: Q01DX009 (ip), vehicle: saline with Tween-80
[15] = dose: 400.0 mg/kg/injection, schedule: Q04DX003 (ip), vehicle: saline
[16] = dose: 50.0 mg/kg/injection, schedule: Q04DX003 (ip), vehicle: saline with Tween-80
[17] = dose: 100.0 mg/kg/injection, schedule: Q04DX003 (ip), vehicle: saline with Tween-80
[18] = dose: 200.0 mg/kg/injection, schedule: Q04DX003 (ip), vehicle: saline with Tween-80

Measured: T/C

C[N+](C)(C)/N=C/c1ccccc1
inactive: [1] 97 % of control | [2] 103 % of control | [3] 93 % of control and 96 % of control

CN(CCc1cnc2nc(N)nc(N)c2n1)c1ccc(C(=O)NC(CCC(=O)O)C(=O)O)cc1 (stereo unspecified)
inactive: [1] 113 % of control | [2] 118 % of control | [4] 110 % of control | [5] 105 % of control

CC(=O)c1ccc[n+](Cc2ccc3c(c2)OCO3)c1
inactive: dose: 75.0 mg/kg/injection, schedule: Q01DX001 (ip), vehicle: carboxymethylcellulose (CMC) 103 % of control | dose: 150.0 mg/kg/injection, schedule: Q01DX001 (ip), vehicle: carboxymethylcellulose (CMC) 109 % of control

O=C(Nc1ccc(C(c2ccccc2)(c2ccccc2)c2ccccc2)cc1)C(Cl)Cl
inactive: [6] 91 % of control | [7] 96 % of control | [8] 97 % of control | [9] 95 % of control | [10] 97 % of control | [11] 94 % of control

CC(=O)NC(C)(C)Cc1ccccc1
inactive: dose: 50.0 mg/kg/injection, schedule: Q01DX001 (ip), vehicle: carboxymethylcellulose (CMC) 89 % of control | dose: 100.0 mg/kg/injection, schedule: Q01DX001 (ip), vehicle: carboxymethylcellulose (CMC) 94 % of control | [12] 111 % of control | [13] 101 % of control | dose: 400.0 mg/kg/injection, schedule: Q01DX001 (ip), vehicle: carboxymethylcellulose (CMC) 94 % of control | [14] 86 % of control

CC(C)c1sc([S-])n[n+]1-c1ccccc1
inactive: dose: 100.0 mg/kg/injection, schedule: Q01DX001 (ip), vehicle: saline 104 % of control | [4] 101 % of control | dose: 200.0 mg/kg/injection, schedule: Q01DX001 (ip), vehicle: saline 101 % of control | [5] 95 % of control | dose: 400.0 mg/kg/injection, schedule: Q01DX001 (ip), vehicle: saline 91 % of control | [15] 101 % of control

CC(C)(C)c1ccc(CN2CCN(C(c3ccccc3)c3ccc(Cl)cc3)CC2)cc1 (stereo unspecified)
inactive: [1] 98 % of control | [2] 91 % of control | dose: 25.0 mg/kg/injection, schedule: Q04DX003 (ip), vehicle: Klucel (hydroxypropylcellulose) (HPC) 93 % of control | [3] 91 % of control | dose: 50.0 mg/kg/injection, schedule: Q04DX003 (ip), vehicle: Klucel (hydroxypropylcellulose) (HPC) 93 % of control | [7] 96 % of control | [9] 91 % of control

O=P(N1CCOCC1)(N1CCOCC1)N1CCOCC1
inactive: [4] 100 % of control and 112 % of control | [5] 98 % of control and 106 % of control | [15] 97 % of control and 109 % of control

O=C(c1ccccc1)c1nnc(C(=O)c2ccccc2)nn1
inactive: [7] 102 % of control | [9] 100 % of control | [11] 93 % of control

O=C(CC(=Nc1ccccc1)c1ccccc1)c1ccccc1.O=C(CC(=Nc1ccccc1)c1ccccc1)c1ccccc1.[Cu]
inactive: [16] 89 % of control | [17] 90 % of control

CN(C)CC/C=C1\c2ccccc2CSc2ccccc21
inactive: dose: 6.25 mg/kg/injection, schedule: Q01DX009 (ip), vehicle: saline 95 % of control | dose: 12.5 mg/kg/injection, schedule: Q01DX009 (ip), vehicle: saline 108 % of control | dose: 25.0 mg/kg/injection, schedule: Q01DX009 (ip), vehicle: saline 109 % of control | dose: 25.0 mg/kg/injection, schedule: Q04DX003 (ip), vehicle: saline 100 % of control | dose: 50.0 mg/kg/injection, schedule: Q01DX009 (ip), vehicle: saline 101 % of control | dose: 50.0 mg/kg/injection, schedule: Q04DX003 (ip), vehicle: saline 89 % of control | [4] 97 % of control

COc1cccc(C=Nc2ccc(N(C)C)cc2)c1O.COc1cccc(C=Nc2ccc(N(C)C)cc2)c1O.[Co]
inactive: [16] 88 % of control | [17] 88 % of control | [18] 98 % of control

CC(C)(C)NC(=O)Oc1ccccc1C(N)=O
inactive: [6] 95 % of control | [8] 95 % of control | [10] 94 % of control

N#CCN(CC#N)S(=O)(=O)c1ccccc1
inactive: [17] 96 % of control | [18] 94 % of control | dose: 400.0 mg/kg/injection, schedule: Q04DX003 (ip), vehicle: saline with Tween-80 101 % of control

CCCCC1=C(c2ccccc2)C(=O)OC1=O
inactive: [6] 95 % of control | [7] 88 % of control | [8] 95 % of control | [9] 98 % of control | [10] 100 % of control | [11] 89 % of control

Cn1c(Cc2ccccc2)c(-c2ccccc2)c(-c2ccccc2)c1Cc1ccccc1
inactive: dose: 75.0 mg/kg/injection, schedule: Q01DX001 (ip), vehicle: saline 94 % of control | dose: 150.0 mg/kg/injection, schedule: Q01DX001 (ip), vehicle: saline 88 % of control | dose: 300.0 mg/kg/injection, schedule: Q01DX001 (ip), vehicle: saline 93 % of control

COC(=O)c1ccc(-c2c3ccc(=O)cc-3oc3cc(O)ccc23)c(C(=O)OC)c1
inactive: dose: 50.0 mg/kg/injection, schedule: Q04DX003 (ip), vehicle: gum acacia 102 % of control | dose: 100.0 mg/kg/injection, schedule: Q04DX003 (ip), vehicle: gum acacia 98 % of control | dose: 200.0 mg/kg/injection, schedule: Q04DX003 (ip), vehicle: gum acacia 102 % of control | dose: 400.0 mg/kg/injection, schedule: Q04DX003 (ip), vehicle: gum acacia 95 % of control

O/N=C/c1ccc2ccccc2n1
inactive: dose: 18.75 mg/kg/injection, schedule: Q01DX009 (ip), vehicle: Klucel (hydroxypropylcellulose) (HPC) 105 % of control | dose: 18.75 mg/kg/injection, schedule: Q04DX003 (ip), vehicle: Klucel (hydroxypropylcellulose) (HPC) 97 % of control | dose: 37.5 mg/kg/injection, schedule: Q01DX009 (ip), vehicle: Klucel (hydroxypropylcellulose) (HPC) 100 % of control | dose: 37.5 mg/kg/injection, schedule: Q04DX003 (ip), vehicle: Klucel (hydroxypropylcellulose) (HPC) 103 % of control | dose: 75.0 mg/kg/injection, schedule: Q01DX009 (ip), vehicle: Klucel (hydroxypropylcellulose) (HPC) 113 % of control | dose: 75.0 mg/kg/injection, schedule: Q04DX003 (ip), vehicle: Klucel (hydroxypropylcellulose) (HPC) 97 % of control and 103 % of control

O=C1CCCCC/C1=C1\C(=O)Nc2ccc(Br)cc21
inactive: [12] 107 % of control | dose: 100.0 mg/kg/injection, schedule: Q04DX002 (ip), vehicle: saline with Tween-80 105 % of control | [13] 100 % of control | dose: 200.0 mg/kg/injection, schedule: Q04DX002 (ip), vehicle: saline with Tween-80 105 % of control | [14] 93 % of control | dose: 400.0 mg/kg/injection, schedule: Q04DX002 (ip), vehicle: saline with Tween-80 97 % of control

O=S(=O)(NCCNS(=O)(=O)c1ccccc1)c1ccccc1
inactive: [12] 96 % of control | [13] 94 % of control | [14] 95 % of control
